In ChEMBL document CHEMBL1201862, “PubChem BioAssay data set” (2004):
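Interpolation was linear, between the two tested concentrations surrounding the appropriate level; five concentrations were tested over 48 hours in 96-well plates. Abbreviation: GI50, concentration required for 50% inhibition of growth.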 The source made the active and inactive calls. Cut-off read from the data, not from the text of the source: active = GI50 up to about 1.1 µM and inactive = higher.

Legend:
Test in all cases: NCI anticancer screen, dose series, 48 h
KM12 = test system: KM12
NCI-H460 = test system: NCI-H460
786-0 = test system: 786-0
SK-MEL-2 = test system: SK-MEL-2
RPMI-8226 = test system: RPMI-8226
SNB-19 = test system: SNB-19
EKVX = test system: EKVX
SNB-75 = test system: SNB-75
NCI-H23 = test system: NCI-H23
HCT-116 = test system: HCT-116
ACHN = test system: ACHN
COLO 205 = test system: COLO 205
A498 = test system: A498
BT-549 = test system: BT-549
MOLT-4 = test system: MOLT-4
IGROV-1 = test system: IGROV-1
MCF7 = test system: MCF7
MDA-MB-231 = test system: MDA-MB-231
CAKI-1 = test system: CAKI-1
SF-268 = test system: SF-268
SR = test system: SR
SW-620 = test system: SW-620
UACC-62 = test system: UACC-62
MDA-MB-435 = test system: MDA-MB-435
SF-539 = test system: SF-539
DU-145 = test system: DU-145
SF-295 = test system: SF-295
HOP-92 = test system: HOP-92
PC-3 = test system: PC-3
HCT-15 = test system: HCT-15
SK-MEL-28 = test system: SK-MEL-28
NCI-H226 = test system: NCI-H226
M14 = test system: M14
MDA-N = test system: MDA-N
NCI/ADR-RES = test system: NCI/ADR-RES
SK-OV-3 = test system: SK-OV-3
Hs-578T = test system: Hs-578T
A549 = test system: A549
HL-60 = test system: HL-60
TK-10 = test system: TK-10
UACC-257 = test system: UACC-257
CCRF-CEM = test system: CCRF-CEM
U-251 = test system: U-251
K562 = test system: K562
SK-MEL-5 = test system: SK-MEL-5
HOP-62 = test system: HOP-62
OVCAR-5 = test system: OVCAR-5
HT-29 = test system: HT-29
OVCAR-3 = test system: OVCAR-3
SN12C = test system: SN12C
T47D = test system: T47D
LOX IMVI = test system: LOX IMVI
OVCAR-8 = test system: OVCAR-8
UO-31 = test system: UO-31
Malme-3M = test system: Malme-3M
OVCAR-4 = test system: OVCAR-4
RXF 393 = test system: RXF 393
NCI-H522 = test system: NCI-H522
HCC 2998 = test system: HCC 2998

Measured: GI50

CCCC1C2=C(C(=O)OC2=O)C2C(CC)CC3=C(C(=O)OC3=O)C12 (stereo not given)
> 100 µM: HCT-15
inactive: KM12 > 100 µM | NCI-H460 > 100 µM | 786-0 > 100 µM | SK-MEL-2 > 100 µM | RPMI-8226 > 100 µM | SNB-19 > 100 µM | EKVX > 100 µM | SNB-75 > 100 µM | NCI-H23 > 100 µM | HCT-116 > 100 µM | ACHN > 100 µM | COLO 205 > 100 µM | A498 > 100 µM | BT-549 > 100 µM | MOLT-4 > 100 µM | IGROV-1 > 100 µM | MCF7 > 100 µM | MDA-MB-231 > 100 µM | CAKI-1 > 100 µM | SF-268 > 100 µM | SR > 100 µM | SW-620 > 100 µM | UACC-62 > 100 µM | MDA-MB-435 > 100 µM | SF-539 > 100 µM | DU-145 > 100 µM | SF-295 > 100 µM | HOP-92 > 100 µM | PC-3 > 100 µM | SK-MEL-28 > 100 µM | NCI-H226 > 100 µM | M14 > 100 µM | MDA-N > 100 µM | NCI/ADR-RES > 100 µM | SK-OV-3 > 100 µM | Hs-578T 18.4 µM | A549 > 100 µM | HL-60 > 100 µM | TK-10 > 100 µM | UACC-257 > 100 µM | CCRF-CEM > 100 µM | U-251 > 100 µM | K562 > 100 µM | SK-MEL-5 > 100 µM | HOP-62 > 100 µM | OVCAR-5 > 100 µM | HT-29 > 100 µM | OVCAR-3 > 100 µM | SN12C > 100 µM | T47D > 100 µM | LOX IMVI > 100 µM | OVCAR-8 > 100 µM | UO-31 > 100 µM

CC(C)(C)OC(=O)N/N=C(/N)Cc1ccc(Cl)cc1
> 100 µM: HCT-15
inactive: KM12 > 100 µM | NCI-H460 > 100 µM | 786-0 > 100 µM | SK-MEL-2 > 100 µM | SNB-19 > 100 µM | EKVX > 100 µM | Malme-3M > 100 µM | SNB-75 > 100 µM | HCT-116 > 100 µM | ACHN > 100 µM | COLO 205 > 100 µM | A498 > 100 µM | BT-549 > 100 µM | MOLT-4 > 100 µM | OVCAR-4 > 100 µM | RXF 393 > 100 µM | IGROV-1 > 100 µM | MCF7 > 100 µM | MDA-MB-231 > 100 µM | CAKI-1 > 100 µM | SF-268 > 100 µM | SR 51.6 µM | SW-620 > 100 µM | UACC-62 > 100 µM | MDA-MB-435 > 100 µM | DU-145 > 100 µM | SF-295 > 100 µM | PC-3 > 100 µM | NCI-H522 > 100 µM | SK-MEL-28 > 100 µM | NCI-H226 > 100 µM | M14 > 100 µM | HCC 2998 > 100 µM | MDA-N > 100 µM | NCI/ADR-RES > 100 µM | SK-OV-3 > 100 µM | Hs-578T > 100 µM | A549 > 100 µM | TK-10 > 100 µM | UACC-257 > 100 µM | CCRF-CEM > 100 µM | U-251 > 100 µM | K562 37.2 µM | SK-MEL-5 > 100 µM | HOP-62 > 100 µM | OVCAR-5 > 100 µM | HT-29 73.1 µM | OVCAR-3 > 100 µM | SN12C > 100 µM | T47D > 100 µM | LOX IMVI > 100 µM | OVCAR-8 > 100 µM | UO-31 > 100 µM

COc1cc([N+](=O)[O-])cc2c1NC(=O)C2(C)SC (stereo not given)
> 100 µM: HCT-15
inactive: KM12 > 100 µM | NCI-H460 > 100 µM | 786-0 > 100 µM | SK-MEL-2 60.7 µM | RPMI-8226 > 100 µM | SNB-19 > 100 µM | EKVX > 100 µM | Malme-3M > 100 µM | SNB-75 38.2 µM | NCI-H23 > 100 µM | HCT-116 36.7 µM | ACHN > 100 µM | COLO 205 > 100 µM | A498 > 100 µM | BT-549 > 100 µM | MOLT-4 31.6 µM | OVCAR-4 90.2 µM | RXF 393 86.7 µM | IGROV-1 > 100 µM | MCF7 79.4 µM | MDA-MB-231 > 100 µM | CAKI-1 > 100 µM | SF-268 > 100 µM | SR 68.2 µM | SW-620 69 µM | UACC-62 96.8 µM | MDA-MB-435 53.1 µM | DU-145 > 100 µM | SF-295 63.7 µM | PC-3 > 100 µM | NCI-H522 > 100 µM | SK-MEL-28 > 100 µM | NCI-H226 > 100 µM | M14 52.8 µM | HCC 2998 > 100 µM | MDA-N 51.8 µM | NCI/ADR-RES 94.6 µM | SK-OV-3 25.4 µM | Hs-578T > 100 µM | A549 > 100 µM | HL-60 18.3 µM | TK-10 > 100 µM | UACC-257 > 100 µM | CCRF-CEM 40.9 µM | U-251 > 100 µM | K562 34.4 µM | SK-MEL-5 > 100 µM | HOP-62 > 100 µM | OVCAR-5 > 100 µM | HT-29 > 100 µM | OVCAR-3 77.3 µM | SN12C 58.3 µM | T47D 66.8 µM | LOX IMVI 88.1 µM | OVCAR-8 > 100 µM | UO-31 > 100 µM
